Source: US20260092868A1, “METHOD FOR SCREENING FOR AUTOPHAGY MODULATOR” (THE ASAN FOUNDATION, priority 2022, published 2026)

Key:
[1] = test system: SNU475 cells; assay: Fluorescent tracker (ER-tracker, lysosome-tracker, mito-tracker) imaging by super-resolution microscopy (Airyscan); assay type: cell-based, human
Description: Changes in the endoplasmic reticulum and lysosomes were measured using a confocal microscope and fluorescent trackers. As the fluorescent trackers, ER-tracker, which enables the specific observation of only the endoplasmic reticulum, and lysosome-tracker, which enables the specific observation of only lysosomes, were used.
Specifically, SNU475 cells were treated with thapsigargin (10 μM) and then stained with ER-tracker or lysosome-tracker, the kinetics of the endoplasmic reticulum and lyosomes were analyzed by super-resolution microscopy (Airyscan), and the results thereof are shown in FIG. 5.
To confirm that high-density vesicles produced upon treatment with thapsigargin are specific to the endoplasmic reticulum, the kinetics of mitochondria were analyzed in the same manner as in 4.1 above by using mito-tracker, which is a mitochondria-specific tracker, and the results thereof are shown in FIG. 6.

[2] = test system: SNU475 cells; assay: Optical diffraction tomography (ODT) imaging of vesicles and organelles in SNU475 cells; assay type: cell-based, human
Description: To confirm changes in vesicles upon treatment with an autophagy modulator, SNU475 cells, which are a human hepatoma cell line, were treated with 10 μM thapsigargin, which is an autophagy activator, and then the changes in vesicles in the cells were examined.
More specifically, a SNU475 cell line was prepared in a TomoDish and the SNU475 cells were treated with 10 μM thapsigargin, and then optical diffraction tomography (ODT) images were generated by using HT-2H fluorescence holotomography (Tomocube).
SNU475 cells were treated with 10 μM thapsigargin to induce ER stress, and then changes in the refractive index and radius of vesicles produced in the cells were measured on the basis of images confirmed in Example 1, and the results thereof are shown in FIG. 2. In addition, SNU475 cells were treated with 10 μM thapsigargin, and the number and volume of vesicles in the SNU475 cells treated with thapsigargin were observed over time for 2 hours, and the results thereof are shown in FIG. 3.
To confirm statistical changes in the density and refractive index of vesicles and organelles upon treatment with thapsigargin, the densities and refractive indices of cells before and after SNU475 cells were treated with thapsigargin (10 μM) were compared. In addition, to confirm changes in the densities of organelles upon treatment with thapsigargin, the refractive indices of a nucleolus (No), an endoplasmic reticulum (ER), a cytosol (Cyt), and a plasma membrane (PM) were measured.
To confirm whether the same results as the case of thapsigargin can be obtained upon treatment with autophagy modulators other than thapsigargin, SNU475 cells were treated with each of CPA (20 μM) and TC (60 ug/mL) to induce ER stress, and then changes in vesicles produced in the cells were observed using HT-2H fluorescence holotomography (Tomocube). For observation, optical diffraction tomography (ODT) images 10 hours after treatment with CPA and ODT images 2 hours after treatment with TC were generated, and the results thereof are shown in FIG. 8.

[3] = test system: SNU475 cells; assay: ODT setup linking three-dimensional ODT imaging and two-dimensional fluorescence; assay type: cell-based, human; conditions: SNU475 cells after treatment with thapsigargin, ODT plus 2D fluorescence
Description: Additionally, changes in the endoplasmic reticulum and lysosomes in SNU475 cells treated with thapsigargin were analyzed using an ODT setup that can link three-dimensional ODT imaging and two-dimensional fluorescence. […] It was also confirmed that vesicles were produced in the ER region, followed by fusion with lysosomes.

[4] = test system: CCPG1; assay: Colocalization of ER-phagy receptors with LC3 by immunofluorescence (IF); assay type: cell-based; conditions: 10 μM thapsigargin, IF (FIG. 7)
Description: (§1) To measure the activation levels of an autophagy marker and an ER-phagy marker after treatment with thapsigargin, the colocalization of ER-phagy receptors was measured.
(§2) More specifically, after treatment with thapsigargin (10 μM), the activation of CCPG1, FAM134B, RTN3, and SEC62 was examined by immunofluorescence (IF) analysis, and then the results thereof are shown in FIG. 7.

[5] = test system: FAM134B; assay: as above; assay type: cell-based; conditions: 10 μM thapsigargin, IF (FIG. 7)
Description: as §1, §2

[6] = test system: SEC62; assay: as above; assay type: cell-based; conditions: 10 μM thapsigargin, IF (FIG. 7)
Description: as §1, §2

[7] = test system: RTN3; assay: as above; assay type: cell-based; conditions: 10 μM thapsigargin, IF (FIG. 7)
Description: as §1, §2

[8] = 10 μM thapsigargin, observed for 2 hours (FIG. 3)

## C/C=C(/C)C(=O)O[C@H]1C(C)=C2[C@H]([C@@H]1OC(=O)CCCCCCC)[C@@](C)(OC(C)=O)C[C@H](OC(=O)CCC)[C@@]1(O)[C@H]2OC(=O)[C@@]1(C)O [thapsigargin]
[1]; 10 μM thapsigargin, ER-tracker or lysosome-tracker (FIG. 5)
  production of vesicles and lysosomes containing ER components: vesicles and lysosomes that contain ER components were produced
[1]; 10 μM thapsigargin, lysosome-tracker (FIG. 5B)
  time difference of production of large lysosomes relative to the ER: about 15 minutes
[1]; thapsigargin, mito-tracker (FIG. 6)
  mitochondrial components in high-density vesicles: did not include mitochondrial components
[2]; 10 μM thapsigargin (FIG. 2A)
  change in the refractive index of vesicles over time: decreased over time
[2]; 10 μM thapsigargin (FIG. 2B)
  change in the radius of vesicles over time: increased over time
[2]; 10 μM thapsigargin (FIG. 4)
  ER-phagy induction: induced
  density of induced vesicles compared with the endoplasmic reticulum: higher density than the endoplasmic reticulum
[2]; 10 μM thapsigargin, ODT images (FIG. 1)
  generation of high-density vesicles: high-density vesicles were generated
[2]; [8]
  change in the total number of vesicles over time: decreased over time
  change in volume of vesicles over time: increased over time
[2]; before and after 10 μM thapsigargin (FIG. 4C)
  density of the endoplasmic reticulum upon treatment: decreased
[3]
  colocalization of high-density vesicles produced in the cytoplasm: specifically colocalized with the endoplasmic reticulum and lysosomes
[4]
  activation of CCPG1 through colocalization with LC3: activated
[5]
  activation of FAM134B through colocalization with LC3: activated
[6]
  activation of SEC62 through colocalization with LC3: activated
[7]
  activation of RTN3 through colocalization with LC3: activated

## tunicamycin [TC]
[2]; TC 60 ug/mL, ODT images 2 hours after treatment (FIG. 8B)
  change in vesicles: the same changes in the vesicles as those upon treatment with thapsigargin occurred
